From patent US12528815B2, “5-amino-8-(4-pyridyl)-[1,2,4]triazolo[4,3-c]pyrimidin-3-one compounds for use against cancer” (Nxera Pharma UK Limited, priority 2020, dated 2026)

Assays:
[1] = target: T1, human adenosine A1 receptor (Homo sapiens, UniProt P30542); assay: Inhibition binding assay, human adenosine A1 receptor membranes, [3H]DPCPX; conditions: 1 nM [3H]DPCPX, 25° C., 1 h; IC50 converted to Ki with Cheng-Prusoff; read-out: A1 pKi (converted)
T1 construct: expressed in transfected cells; host or cells: HEK293 cells infected with BacMam (the same paragraph also labels the preparation CHO-hA1)
T1 sequence (P30542 1-326): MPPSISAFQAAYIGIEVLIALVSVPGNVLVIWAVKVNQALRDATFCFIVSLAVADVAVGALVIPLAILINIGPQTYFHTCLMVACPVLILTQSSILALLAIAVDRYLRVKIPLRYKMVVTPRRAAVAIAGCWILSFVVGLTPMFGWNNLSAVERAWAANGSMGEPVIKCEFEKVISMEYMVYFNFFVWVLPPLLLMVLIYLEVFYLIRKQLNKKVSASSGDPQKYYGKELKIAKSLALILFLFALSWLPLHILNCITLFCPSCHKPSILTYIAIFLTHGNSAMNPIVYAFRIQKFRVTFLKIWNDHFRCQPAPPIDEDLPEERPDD
Summary of the method: (§1)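 Membranes from BacMam-infected HEK293 cells (0.2 μg A2A, 1.4 μg A1) incubated 1 h at 25° C with test compound and 1 nM [3H]ZM241385 (A2A; 50 mM Tris-HCl pH 7.4) or [3H]DPCPX (A1; plus 100 mM NaCl, 10 mM MgCl2). Nonspecific: 1 μM CGS15943 or DPCPX. Filtration, scintillation; IC50 converted to Ki via Cheng-Prusoff.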

[2] = target: T2, human adenosine A2A receptor (Homo sapiens, UniProt P29274); assay: Inhibition binding assay, human adenosine A2A receptor membranes, [3H]ZM241385; conditions: 1 nM [3H]ZM241385, HEK293-hA2A membranes, 25° C., 1 h; IC50 converted to Ki with Cheng-Prusoff; read-out: A2A pKi (converted)
T2 construct: expressed in transfected cells; host or cells: HEK293 cells infected with BacMam
T2 sequence (P29274 whole entry): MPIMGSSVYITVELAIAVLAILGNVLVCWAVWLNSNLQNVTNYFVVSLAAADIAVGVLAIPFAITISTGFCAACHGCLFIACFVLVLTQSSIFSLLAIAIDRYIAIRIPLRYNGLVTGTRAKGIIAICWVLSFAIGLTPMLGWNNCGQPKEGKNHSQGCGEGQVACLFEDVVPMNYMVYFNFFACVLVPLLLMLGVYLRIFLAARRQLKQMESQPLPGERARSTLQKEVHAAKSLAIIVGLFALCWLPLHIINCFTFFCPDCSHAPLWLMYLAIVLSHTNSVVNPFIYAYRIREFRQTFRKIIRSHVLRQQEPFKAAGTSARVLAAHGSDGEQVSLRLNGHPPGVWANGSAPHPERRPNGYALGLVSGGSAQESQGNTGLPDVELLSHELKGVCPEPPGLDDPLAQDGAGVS
Summary of the method: as §1

Structure (SMILES) | Ki [1] [nM] | Ki [2] [nM]
Cc1cc(-c2c(-c3ccccc3)nc(N)n3c(=O)n(Cc4ccccc4SC(F)F)nc23)cc(C)n1 [Example 1-16, 5-amino-2-[[2-(difluoromethylsulfanyl)phenyl]methyl]-8-(2,6-dimethyl-4-pyridyl)-7-phenyl-[1,2,4]triazolo[4,3-c]pyrimidin-3-one] | 1 | 0.251
COc1cc(-c2c(-c3ccccc3)nc(N)n3c(=O)n(Cc4ccc(F)cn4)nc23)cc(CO)n1 [Example 1-73, 5-amino-2-[(5-fluoro-2-pyridyl)methyl]-8-[2-(hydroxymethyl)-6-methoxy-4-pyridyl]-7-phenyl-[1,2,4]triazolo[4,3-c]pyrimidin-3-one] | 398 | 2.51
Cc1cc(-c2c(-c3ccccc3)nc(N)n3c(=O)n(Cc4cccc(=O)[nH]4)nc23)cc(C)n1 [Example 1-9, 5-amino-8-(2,6-dimethyl-4-pyridyl)-2-[(6-oxo-1H-pyridin-2-yl)methyl]-7-phenyl-[1,2,4]triazolo[4,3-c]pyrimidin-3-one] | 126 | 12.6
COc1cc(-c2c(-c3ccc(F)cc3)nc(N)n3c(=O)n(Cc4ccc(Cl)cn4)nc23)cc(CO)n1 [Example 1-68, 5-amino-2-[(5-chloro-2-pyridyl)methyl]-7-(4-fluorophenyl)-8-[2-(hydroxymethyl)-6-methoxy-4-pyridyl]-[1,2,4]triazolo[4,3-c]pyrimidin-3-one] | > 1580 | 1.26
Cc1cc(-c2c(-c3ccccc3)nc(N)n3c(=O)n(Cc4ccc(Br)cn4)nc23)cc(CO)n1 [Example 1-53, 5-amino-2-[(5-bromo-2-pyridyl)methyl]-8-[2-(hydroxymethyl)-6-methyl-4-pyridyl]-7-phenyl-[1,2,4]triazolo[4,3-c]pyrimidin-3-one] | 501 | 2.51
Cc1cc(-c2c(-c3ccccc3)nc(N)n3c(=O)n(Cc4cccnc4-n4cccn4)nc23)cc(C)n1 [Example 1-19, 5-amino-8-(2,6-dimethyl-4-pyridyl)-7-phenyl-2-[(2-pyrazol-1-yl-3-pyridyl)methyl]-[1,2,4]triazolo[4,3-c]pyrimidin-3-one] | 100 | 1.26
Cc1cc(-c2c(-c3ccccc3)nc(N)n3c(=O)n(Cc4ccc(F)c(=O)n4C)nc23)cc(C)n1 [Example 1-10, 5-amino-8-(2,6-dimethyl-4-pyridyl)-2-[(5-fluoro-1-methyl-6-oxo-2-pyridyl)methyl]-7-phenyl-[1,2,4]triazolo[4,3-c]pyrimidin-3-one] | 794 | 20
CC1=NN(c2cccc(NCCn3nc4c(-c5cc(C)nc(C)c5)c(-c5ccccc5)nc(N)n4c3=O)c2)C(=O)C1 [Example 1-98, 5-amino-8-(2,6-dimethyl-4-pyridyl)-2-[2-[3-(3-methyl-5-oxo-4H-pyrazol-1-yl)anilino]ethyl]-7-phenyl-[1,2,4]triazolo[4,3-c]pyrimidin-3-one] | 1000 | 79.4
Cc1cc(-c2c(-c3ccccc3)nc(N)n3c(=O)n(Cc4ccc(F)cn4)nc23)cc(O)n1 [Example 1-74, 5-amino-2-[(5-fluoro-2-pyridyl)methyl]-8-(2-hydroxy-6-methyl-4-pyridyl)-7-phenyl-[1,2,4]triazolo[4,3-c]pyrimidin-3-one] | > 3160 | 316
Cc1cc(-c2c(-c3ccccc3)nc(N)n3c(=O)n(CCc4ccccn4)nc23)cc(C)n1 [Example 1-86, 5-amino-8-(2,6-dimethyl-4-pyridyl)-7-phenyl-2-[2-(2-pyridyl)ethyl]-[1,2,4]triazolo[4,3-c]pyrimidin-3-one] | 794 | 5.01
CCC(c1ccc(F)cn1)n1nc2c(-c3cc(C)nc(CO)c3)c(-c3ccccc3)nc(N)n2c1=O (single isomer, unassigned) [1-46 iso-2, 5-amino-2-[1-(5-fluoro-2-pyridyl)propyl]-8-[2-(hydroxymethyl)-6-methyl-4-pyridyl]-7-phenyl-[1,2,4]triazolo[4,3-c]pyrimidin-3-one] | > 2510 | 100
COC(=O)c1ccc(CCn2nc3c(-c4cc(C)nc(C)c4)c(-c4ccccc4)nc(N)n3c2=O)cc1 [Example 1-84, methyl 4-[2-[5-amino-8-(2,6-dimethyl-4-pyridyl)-3-oxo-7-phenyl-[1,2,4]triazolo[4,3-c]pyrimidin-2-yl]ethyl]benzoate] | 794 | 31.6
Cc1cc(-c2c(-c3ccccc3)nc(N)n3c(=O)n(Cc4ccccc4CN(C)C)nc23)cc(C)n1 [Example 1-24, 5-amino-2-[[2-[(dimethylamino)methyl]phenyl]methyl]-8-(2,6-dimethyl-4-pyridyl)-7-phenyl-[1,2,4]triazolo[4,3-c]pyrimidin-3-one] | 15.8 | 0.126
Cc1cc(-c2c(-c3ccccc3)nc(N)n3c(=O)n(C(CN)c4c(F)cccc4F)nc23)cc(C)n1 (centres unmarked) [Example 1-34, 5-amino-2-(2-amino-1-(2,6-difluorophenyl)ethyl)-8-(2,6-dimethylpyridin-4-yl)-7-phenyl-[1,2,4]triazolo[4,3-c]pyrimidin-3(2H)-one] | 100 | 1
COc1cccc(Cn2nc3c(-c4cc(C)nc(C)c4)c(-c4ccccc4)nc(N)n3c2=O)n1 [Example 1-6, 5-amino-8-(2,6-dimethyl-4-pyridyl)-2-[(6-methoxy-2-pyridyl)methyl]-7-phenyl-[1,2,4]triazolo[4,3-c]pyrimidin-3-one] | 200 | 0.794
Cc1cc(-c2c(-c3ccccc3)nc(N)n3c(=O)n(Cc4ccncc4)nc23)cc(C)n1 [Example 1-12, 5-amino-8-(2,6-dimethyl-4-pyridyl)-7-phenyl-2-(4-pyridylmethyl)-[1,2,4]triazolo[4,3-c]pyrimidin-3-one] | 794 | 10
Cc1cc(-c2c(-c3ccccc3)nc(N)n3c(=O)n(CC4CCCCO4)nc23)cc(CO)n1 (single isomer, unassigned) [Example 2-91-iso-1, 5-amino-8-[2-(hydroxymethyl)-6-methyl-4-pyridyl]-7-phenyl-2-(tetrahydropyran-2-ylmethyl)-[1,2,4]triazolo[4,3-c]pyrimidin-3-one] | 631 | 1.26
Cc1cc(-c2c(-c3ccccc3)nc(N)n3c(=O)n(Cc4ccccc4C4CCNCC4)nc23)cc(C)n1 [Example 1-30, 5-amino-8-(2,6-dimethyl-4-pyridyl)-7-phenyl-2-[[2-(4-piperidyl)phenyl]methyl]-[1,2,4]triazolo[4,3-c]pyrimidin-3-one] | 39.8 | 0.501

Now from value to compound:

Ki [1] [nM] | Ki [2] [nM] | Structure (SMILES)
794 | 100 | Cc1cc(-c2c(-c3ccccc3)nc(N)n3c(=O)n(CCNC(=O)OC(C)(C)C)nc23)cc(C)n1 [Example 2-14, tert-butyl N-[2-[5-amino-8-(2,6-dimethyl-4-pyridyl)-3-oxo-7-phenyl-[1,2,4]triazolo[4,3-c]pyrimidin-2-yl]ethyl]carbamate]
200 | 1.58 | Cc1cc(-c2c(-c3ccccc3)nc(N)n3c(=O)n(CC(=O)N(C)C4CC4)nc23)cc(C)n1 [Example 2-28, 2-[5-amino-8-(2,6-dimethyl-4-pyridyl)-3-oxo-7-phenyl-[1,2,4]triazolo[4,3-c]pyrimidin-2-yl]-N-cyclopropyl-N-methyl-acetamide]
> 3980 | 1.58 | COc1cc(-c2c(-c3ccc(F)cc3)nc(N)n3c(=O)n(CCC(F)(F)F)nc23)cc(CO)n1 [Example 2-47, 5-amino-7-(4-fluorophenyl)-8-[2-(hydroxymethyl)-6-methoxy-4-pyridyl]-2-(3,3,3-trifluoropropyl)-[1,2,4]triazolo[4,3-c]pyrimidin-3-one]
> 3160 | 316 | Cc1cc(-c2c(N3CCOCC3)nc(N)n3c(=O)n(CCC(F)(F)F)nc23)cc(C)n1 [Example 3-1, 5-amino-8-(2,6-dimethyl-4-pyridyl)-7-morpholino-2-(3,3,3-trifluoropropyl)-[1,2,4]triazolo[4,3-c]pyrimidin-3-one]
> 3160 | 200 | COC(=O)c1nc(N)n2c(=O)n(CCC(F)(F)F)nc2c1-c1cc(C)nc(C)c1 [Example 3-6, methyl 5-amino-8-(2,6-dimethyl-4-pyridyl)-3-oxo-2-(3,3,3-trifluoropropyl)-[1,2,4]triazolo[4,3-c]pyrimidine-7-carboxylate]
> 3980 | 50.1 | Cc1cc(-c2c(-c3cccnc3)nc(N)n3c(=O)n(CCC(F)(F)F)nc23)cc(C)n1 [Example 2-39, 5-amino-8-(2,6-dimethyl-4-pyridyl)-7-(3-pyridyl)-2-(3,3,3-trifluoropropyl)-[1,2,4]triazolo[4,3-c]pyrimidin-3-one]
> 3160 | 251 | Cc1cc(-c2c(-c3ccccc3)nc(N)n3c(=O)n(C4CCCNC4)nc23)cc(C)n1 (centres unmarked) [Example 2-55, 5-amino-8-(2,6-dimethyl-4-pyridyl)-7-phenyl-2-(3-piperidyl)-[1,2,4]triazolo[4,3-c]pyrimidin-3-one]
